Experimental data published in paper PMC12045974, “T cell toxicity induced by tigecycline binding to the mitochondrial ribosome” (Nature Communications, 2025).
Where “and” joins values, the source holds several entries; their conditions need not be identical. Identical values can stand only once.

Test system: CD4+ and CD8+ T cells within PBMCs
Assay: T cell proliferation by flow cytometry (CTV/CFSE dilution) in stimulated PBMCs
Type: cell-based, human
Protocol: After thawing frozen PBMCs, cells were washed with RPMI complemented with 10% FBS, 2.05 mM L-glutamine (Sigma), and 55 μM 2-ME (Gibco) and rested at 37 °C (5% CO2) for 30 min. 250,000 cells per well were seeded in 96-well U-bottom plates with/without Human T-Activator CD3/CD28 beads (Invitrogen) at a 1:1 ratio and 10 ng/ml IL-2 (Proteintech) in RPMI-1640 medium mentioned above. At the same time, antibiotics were added. For the short-term activation assay, cells were harvested 18 h post-stimulation and stained with Aqua fixable live/dead dye (Invitrogen) and surface markers. For the proliferation assays, cells were stained with CFSE (eBioscience) or Cell Trace Violet (ThermoFisher Scientific) dyes before seeding and stimulation, according to the manufacturer’s recommendations. For TCR priming experiments, tigecycline was added at 0, 24 or 72 h post-activation. For mitochondrial mass measuring, cells were stained with Mitotracker Green Fm Dye (Thermo Fisher Scientific) after incubation with Tigecycline. After incubation for 6 days with a half medium (complete, with antibiotics and IL-2) change after 3 days, cells were harvested via centrifugation, and stained with live/dead dye and surface markers for analysis by flow cytometry. The Foxp3/Transcription Factor Staining Buffer Set (Invitrogen) was used to fix cells according to the manufacturer’s instructions. The FACS gating strategy is shown in Supplementary Fig. 2D. Flow cytometry was carried out on a BD Celesta (BD Biosciences) and analyzed in FlowJo (TreeStar) software.

**Q.** With `CN(C)c1cc(NC(=O)CNC(C)(C)C)c(O)c2c1C[C@H]1C[C@H]3[C@H](N(C)C)C(O)=C(C(N)=O)C(=O)[C@@]3(O)C(O)=C1C2=O` [Tigecycline, tigecycline] as the compound, how does the “T cell culture proliferation” value (10 μM administered 24 or 72 h after TCR stimulation) read?
**A.** The value was “significantly reduce”.

**Q.** And the T cell proliferation (CD4+ and CD8+ T cells within PBMCs, 6 days of anti-CD3/CD28 stimulation + IL-2)?
**A.** Its T cell proliferation is “dose-dependent reductions in proliferation”.

**Q.** And the “% Cells in division 4 or later” value (CD4, 0H)?
**A.** The value was 0.15% and 0.18% and 0.39%.

**Q.** What about the “% Cells in each division” value (CD4, 0H, division number 1) of the same compound?
**A.** Its value is 23.9% and 13% and 15.5%.

**Q.** And the “% Cells in each division” value (CD4, 0H, division number 2)?
**A.** The value was 20.2% and 38.4% and 32.9%.

**Q.** What about the “% Cells in each division” value (CD4, 0H, division number 4) of the same compound?
**A.** Its value is 0.42% and 2.83% and 5.88%.

**Q.** What about the “% Cells in each division” value (CD4, 0H, division number 5) of the same compound?
**A.** Its value is 0% and 0.019% and 0.22%.

**Q.** What about the “% Cells in each division” value (CD4, 0H, division number 6) of the same compound?
**A.** Its value is 0%.

**Q.** What about the “% Cells in each division” value (CD4, 0H, division number 7) of the same compound?
**A.** The value was 0%.

**Q.** What about the “% Cells in division 4 or later” value (CD4, 10μM, 6 days, CTV dilution in live cells) of the same compound?
**A.** Its value is 6.485% and 4.27% and 0.862% and 2.104% and 3.325%.

**Q.** And the “% Cells in division 4 or later” value (CD4, 24H)?
**A.** Its value is 0.21% and 0.19% and 0.9%.

**Q.** And the “% Cells in each division” value (CD4, 24H, division number 2)?
**A.** The value was 18.2% and 32.4% and 28.8%.

**Q.** And the “% Cells in each division” value (CD4, 24H, division number 5)?
**A.** Its value is 0.044% and 0.15% and 0.38%.

**Q.** And the “% Cells in each division” value (CD4, 24H, division number 6)?
**A.** The value was 0% and 0.01%.

**Q.** And the “% Cells in each division” value (CD4, 24H, division number 7)?
**A.** The value was 0%.

**Q.** And the “% Cells in each division” value (CD4, 72H, division number 3)?
**A.** Its value is 22.6% and 24.4% and 18.1%.

**Q.** And the “% Cells in each division” value (CD4, 72H, division number 6)?
**A.** The value was 1.08% and 0.32% and 1.2%.

**Q.** And the “% Cells in each division” value (CD4, 72H, division number 7)?
**A.** Its value is 0%.

**Q.** And the “% Cells in division 4 or later” value (CD8, 0H)?
**A.** The value was 0.42% and 2.88% and 6.11%.

**Q.** And the “% Cells in each division” value (CD8, 0H, division number 1)?
**A.** The value was 38.7% and 31.7%.

**Q.** What about the “% Cells in each division” value (CD8, 0H, division number 2) of the same compound?
**A.** Its value is 25.1% and 40.8% and 45.6%.

**Q.** What about the “% Cells in each division” value (CD8, 0H, division number 3) of the same compound?
**A.** The value was 4.86% and 6.4% and 12.3%.

**Q.** And the “% Cells in each division” value (CD8, 0H, division number 4)?
**A.** Its value is 0.15% and 0.18% and 0.36%.

**Q.** What about the “% Cells in each division” value (CD8, 0H, division number 5) of the same compound?
**A.** The value was 0% and 0.019%.

**Q.** What about the “% Cells in each division” value (CD8, 0H, division number 6) of the same compound?
**A.** Its value is 0%.

**Q.** What about the “% Cells in each division” value (CD8, 0H, division number 7) of the same compound?
**A.** Its value is 0%.

**Q.** What about the “% Cells in division 4 or later” value (CD8, 2.5μM, 6 days, CTV dilution in live cells) of the same compound?
**A.** Its value is 47.18% and 43.35% and 55.18% and 63.83% and 48.432%.

**Q.** What about the “% Cells in division 4 or later” value (CD8, 10μM, 6 days, CTV dilution in live cells) of the same compound?
**A.** Its value is 6.12% and 2.26% and 7.121% and 11.81% and 6.155%.

**Q.** What about the “% Cells in each division” value (CD8, 24H, division number 1) of the same compound?
**A.** Its value is 36.2% and 37.7% and 34%.

**Q.** What about the “% Cells in each division” value (CD8, 24H, division number 2) of the same compound?
**A.** Its value is 22.1% and 39.5% and 41.6%.

**Q.** What about the “% Cells in each division” value (CD8, 24H, division number 3) of the same compound?
**A.** The value was 4.04% and 8.22% and 12.9%.

**Q.** And the “% Cells in each division” value (CD8, 24H, division number 4)?
**A.** The value was 0.19% and 0.87%.

**Q.** And the “% Cells in each division” value (CD8, 24H, division number 5)?
**A.** Its value is 0.018% and 0% and 0.019%.

**Q.** And the “% Cells in each division” value (CD8, 24H, division number 6)?
**A.** Its value is 0%.

**Q.** What about the “% Cells in each division” value (CD8, 24H, division number 7) of the same compound?
**A.** The value was 0%.

**Q.** What about the “% Cells in each division” value (CD8, 72H, division number 0) of the same compound?
**A.** Its value is 1.06% and 7.49% and 1.18%.

**Q.** What about the “% Cells in each division” value (CD8, 72H, division number 2) of the same compound?
**A.** Its value is 24.9% and 34.1% and 20.9%.

**Q.** And the “% Cells in each division” value (CD8, 72H, division number 3)?
**A.** The value was 45.1% and 28.9% and 40.2%.

**Q.** What about the “% Cells in each division” value (CD8, 72H, division number 5) of the same compound?
**A.** The value was 2.16% and 0.67% and 3.66%.

**Q.** And the “% Cells in each division” value (CD8, 72H, division number 6)?
**A.** Its value is 0.03% and 0.025% and 0.033%.

**Q.** What about the “% Cells in each division” value (CD8, 72H, division number 7) of the same compound?
**A.** The value was 0%.
